# US20260015350A1, “AZAQUINAZOLINE PAN-KRAS INHIBITORS” (Mirati Therapeutics, Inc., priority 2022, published 2026)
# Columns and labels:
# [1] = target: T1, KRas^G12R (Homo sapiens, UniProt P01116, G12R); test: KRas binding assay (TR-FRET tracer displacement), KRas G12R
# T1 construct: Biotinylated KRas (corresponding to amino acids 1-169, produced at Accelegan Inc.); biotin (biotinylated); purchased Accelegan Inc
# [2] = target: T2, KRas^G13D (Homo sapiens, UniProt P01116, G13D); test: KRas binding assay (TR-FRET tracer displacement), KRas G13D; settings: for inhibition at 0.01 µM: single point, 10 nM compound, TR-FRET
# T2 construct: Biotinylated KRas (corresponding to amino acids 1-169, produced at Accelegan Inc.); biotin (biotinylated); purchased Accelegan Inc
# T2 sequence (P01116 1-169 isoform P01116-2 G13D): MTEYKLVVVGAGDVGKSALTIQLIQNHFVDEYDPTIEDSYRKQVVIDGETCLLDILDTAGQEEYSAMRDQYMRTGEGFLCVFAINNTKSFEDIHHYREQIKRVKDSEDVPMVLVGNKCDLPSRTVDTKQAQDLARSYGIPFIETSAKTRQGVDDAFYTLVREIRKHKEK
# [3] = test system: KRas-mediated phosphorylation of ERK in PSN1 cells; test: Inhibition of KRas-mediated phosphorylation of ERK (Cisbio HTRF pERK), PSN1 cells; format: cell-based; settings: Homo sapiens
# Summary of the method: (§1)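 Seeding density was 6,000 cells/well; medium RPMI, 10% FBS. Read-out by homogeneous time-resolved fluorescence (pERK) after 4 hours covered at room temperature.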
# [4] = target: T3, KRas^G12S (Homo sapiens, UniProt P01116, G12S); test: KRas binding assay (TR-FRET tracer displacement), KRas G12S; settings: for inhibition at 0.01 µM: single point, 10 nM compound, TR-FRET
# T3 construct: Biotinylated KRas (corresponding to amino acids 1-169, produced at Accelegan Inc.); biotin (biotinylated); purchased Accelegan Inc
# T3 sequence (P01116 1-169 isoform P01116-2 G12S): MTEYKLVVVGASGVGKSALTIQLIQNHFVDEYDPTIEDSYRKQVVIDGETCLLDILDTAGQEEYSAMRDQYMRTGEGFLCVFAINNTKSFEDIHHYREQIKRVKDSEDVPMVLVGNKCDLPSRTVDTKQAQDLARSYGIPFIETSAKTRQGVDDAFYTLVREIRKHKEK
# [5] = target: T4, KRas^G12D (Homo sapiens, UniProt P01116, G12D); test: KRas binding assay (TR-FRET tracer displacement), KRas G12D
# T4 construct: Biotinylated KRas (corresponding to amino acids 1-169, produced at Accelegan Inc.); biotin (biotinylated); purchased Accelegan Inc
# T4 sequence (P01116 1-169 isoform P01116-2 G12D): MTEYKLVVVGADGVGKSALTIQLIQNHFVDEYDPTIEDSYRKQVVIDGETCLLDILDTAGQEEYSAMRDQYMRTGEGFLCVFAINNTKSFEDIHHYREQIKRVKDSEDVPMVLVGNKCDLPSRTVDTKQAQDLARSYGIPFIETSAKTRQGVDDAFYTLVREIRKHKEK
# [6] = test system: KRas-mediated phosphorylation of ERK in H358 cells; test: Inhibition of KRas-mediated phosphorylation of ERK (Cisbio HTRF pERK), H358 cells; format: cell-based; settings: Homo sapiens; for inhibition at 0.1 µM: NCI-H358, 3 h, single point, 100 nM compound, 3 hrs
# Summary of the method: (§2)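 H358, H727, H460 and AsPC-1 cells seeded at 6,000/well, treated 3 hrs with 10-dose 3-fold dilutions from 10 uM (0.8% DMSO); 0.2 uM trametinib as min control. Lysed 40 min at 4° C; lysate incubated 2 hrs at room temperature with d2/cryptate antibodies, HTRF read.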
# [7] = target: T5, KRas^Q61H (Homo sapiens, UniProt P01116, Q61H); test: KRas binding assay (TR-FRET tracer displacement), KRas Q61H; settings: for inhibition at 0.01 µM: single point, 10 nM compound, TR-FRET
# T5 construct: Biotinylated KRas (corresponding to amino acids 1-169, produced at Accelegan Inc.); biotin (biotinylated); purchased Accelegan Inc
# T5 sequence (P01116 1-169 isoform P01116-2 Q61H): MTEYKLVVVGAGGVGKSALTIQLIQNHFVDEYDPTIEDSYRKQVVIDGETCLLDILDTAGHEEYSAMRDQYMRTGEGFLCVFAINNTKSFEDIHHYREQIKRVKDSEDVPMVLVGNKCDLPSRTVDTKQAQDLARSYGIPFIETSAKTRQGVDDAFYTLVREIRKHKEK
# [8] = target: T6, KRas^G12A (Homo sapiens, UniProt P01116, G12A); test: KRas binding assay (TR-FRET tracer displacement), KRas G12A; settings: for inhibition at 0.01 µM: single point, 10 nM compound, TR-FRET
# T6 construct: Biotinylated KRas (corresponding to amino acids 1-169, produced at Accelegan Inc.); biotin (biotinylated); purchased Accelegan Inc
# T6 sequence (P01116 1-169 isoform P01116-2 G12A): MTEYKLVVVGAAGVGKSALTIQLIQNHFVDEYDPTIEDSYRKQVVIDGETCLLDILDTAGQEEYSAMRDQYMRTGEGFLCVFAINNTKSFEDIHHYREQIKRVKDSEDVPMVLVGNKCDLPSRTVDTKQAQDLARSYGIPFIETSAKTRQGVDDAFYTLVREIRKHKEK
# [9] = test system: KRas-mediated phosphorylation of ERK in AsPC-1 cells; test: Inhibition of KRas-mediated phosphorylation of ERK (Cisbio HTRF pERK), AsPC-1 cells; format: cell-based; settings: Homo sapiens; for IC50: ASPC1, AsPC-1 cells, HTRF pERK
# Summary of the method: as §2
# [10] = test system: KRas-mediated phosphorylation of ERK in MKN1 cells; test: Inhibition of KRas-mediated phosphorylation of ERK (Cisbio HTRF pERK), MKN1 cells; format: cell-based; settings: Homo sapiens, MKN-1
# Summary of the method: as §1
# [11] = test system: KRas-mediated phosphorylation of ERK in H727 cells; test: Inhibition of KRas-mediated phosphorylation of ERK (Cisbio HTRF pERK), H727 cells; format: cell-based; settings: Homo sapiens; for IC50: NCI-H727, H727 cells, HTRF pERK
# Summary of the method: as §2
# [12] = target: T7, KRas^G12V (Homo sapiens, UniProt P01116, G12V); test: KRas binding assay (TR-FRET tracer displacement), KRas G12V
# T7 construct: Biotinylated KRas (corresponding to amino acids 1-169, produced at Accelegan Inc.); biotin (biotinylated); purchased Accelegan Inc
# T7 sequence (P01116 1-169 isoform P01116-2 G12V): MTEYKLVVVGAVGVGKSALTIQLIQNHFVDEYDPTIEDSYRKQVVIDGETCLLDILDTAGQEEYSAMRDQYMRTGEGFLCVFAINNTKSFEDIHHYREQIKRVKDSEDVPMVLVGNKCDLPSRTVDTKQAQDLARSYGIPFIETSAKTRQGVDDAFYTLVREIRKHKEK
# [13] = target: T8, KRas^WT (Homo sapiens, UniProt P01116); test: KRas binding assay (TR-FRET tracer displacement), KRas WT; settings: for inhibition at 0.01 µM: single point, 10 nM compound, TR-FRET
# T8 construct: Biotinylated KRas (corresponding to amino acids 1-169, produced at Accelegan Inc.); biotin (biotinylated); purchased Accelegan Inc
# T8 sequence (P01116 1-169 isoform P01116-2): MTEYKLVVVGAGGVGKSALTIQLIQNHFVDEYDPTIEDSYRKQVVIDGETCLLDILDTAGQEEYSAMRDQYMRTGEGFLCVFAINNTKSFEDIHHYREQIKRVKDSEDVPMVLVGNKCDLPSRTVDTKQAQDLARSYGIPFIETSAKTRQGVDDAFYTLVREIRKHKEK
# [14] = target: T9, KRas^G12C (Homo sapiens, UniProt P01116, G12C); test: KRas binding assay (TR-FRET tracer displacement), KRas G12C; settings: for inhibition at 0.01 µM: single point, 10 nM compound, TR-FRET
# T9 construct: Biotinylated KRas (corresponding to amino acids 1-169, produced at Accelegan Inc.); biotin (biotinylated); purchased Accelegan Inc
# T9 sequence (P01116 1-169 isoform P01116-2 G12C): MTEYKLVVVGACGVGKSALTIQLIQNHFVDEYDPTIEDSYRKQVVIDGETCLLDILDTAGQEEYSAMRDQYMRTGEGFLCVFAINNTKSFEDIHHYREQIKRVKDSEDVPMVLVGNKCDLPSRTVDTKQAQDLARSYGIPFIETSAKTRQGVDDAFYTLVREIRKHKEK
# [15] = test system: KRas-mediated phosphorylation of ERK in H460 cells; test: Inhibition of KRas-mediated phosphorylation of ERK (Cisbio HTRF pERK), H460 cells; format: cell-based; settings: Homo sapiens; for IC50: NCI-H460, HTRF pERK; for inhibition at 0.1 µM: NCI-H460, 3 h, single point, 100 nM compound, 3 hrs
# Summary of the method: as §2
# [16] = test system: KRas-mediated phosphorylation of ERK in A549 cells; test: Inhibition of KRas-mediated phosphorylation of ERK (Cisbio HTRF pERK), A549 cells; format: cell-based; settings: Homo sapiens; for inhibition at 0.1 µM: A549, 3 h, single point, 100 nM compound, 3 hrs
# Summary of the method: (§3)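 6,000 cells/well; cpd 10 uM top, 3-fold x10, 0.8% DMSO final; 3 hr incubation; Min ctrl Trametinib 0.2 uM; lysis 40 min 4° C shaking; d2 + Cryptate Ab mix, 2 hr RT; HTRF read.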
# [17] = test system: KRas-mediated phosphorylation of ERK in HCT116 cells; test: Inhibition of KRas-mediated phosphorylation of ERK (Cisbio HTRF pERK), HCT116 cells; format: cell-based; settings: Homo sapiens; for inhibition at 0.1 µM: HCT-116, 3 h, single point, 100 nM compound, 3 hrs
# Summary of the method: as §3
# T1 sequence (P01116 1-169 isoform P01116-2 G12R): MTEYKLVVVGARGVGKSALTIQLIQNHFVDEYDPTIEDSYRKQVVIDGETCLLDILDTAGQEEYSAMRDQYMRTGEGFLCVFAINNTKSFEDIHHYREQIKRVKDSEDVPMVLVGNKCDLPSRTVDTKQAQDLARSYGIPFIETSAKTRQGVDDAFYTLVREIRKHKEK
Compound,IC50 [1],inhibition at 0.01 µM [2],IC50 [3],inhibition at 0.01 µM [4],IC50 [5],inhibition at 0.1 µM [6],inhibition at 0.01 µM [7],inhibition at 0.01 µM [8],IC50 [9],IC50 [10],IC50 [11],IC50 [12],inhibition at 0.01 µM [13],inhibition at 0.01 µM [14],IC50 [15],inhibition at 0.1 µM [16],inhibition at 0.1 µM [17],inhibition at 0.1 µM [15],other results
"CCc1c(F)ccc2cc(O)cc(-c3ncc4c(N5CCCCC(C#N)C5)nc(OC[C@@]56CCCN5C[C@H](F)C6)nc4c3F)c12 (stereo partly drawn) [Example 547, 1-(7-(8-ethyl-7-fluoro-3-hydroxynaphthalen-1-yl)-8-fluoro-2-(((2R,7aS)-2-fluorohexahydro-1H-pyrrolizin-7a-yl)methoxy)pyrido[4,3-d]pyrimidin-4-yl)azepane-3-carbonitrile]",10 nM,76%,7520 nM,58%,4 nM,20%,70%,49%,49 nM,16 nM,263 nM,7 nM,68%,56%,51 nM,33%,,,
"CCc1c(F)ccc2cc(O)cc(-c3ncc4c(N5CC6CCC(C5)C6C#N)nc(OC[C@@]56CCCN5C[C@H](F)C6)nc4c3F)c12 (stereo partly drawn) [Example 559, 3-(7-(8-ethyl-7-fluoro-3-hydroxynaphthalen-1-yl)-8-fluoro-2-(((2R,7aS)-2-fluorohexahydro-1H-pyrrolizin-7a-yl)methoxy)pyrido[4,3-d]pyrimidin-4-yl)-3-azabicyclo[3.2.1]octane-8-carbonitrile]",< 2 nM,82%,9490 nM,82%,15 nM,98%,82%,70%,105 nM,5 nM,20 nM,< 2 nM,73%,89%,,75%,55%,89%,
"O=S1(=O)CCC2(CCCN(c3nc(OC[C@@]45CCCN4C[C@H](F)C5)nc4c(F)c(-c5cc(O)cc6cccc(Cl)c56)ncc34)C2)N1 (stereo partly drawn) [Example 604, 7-(7-(8-chloro-3-hydroxynaphthalen-1-yl)-8-fluoro-2-(((2R,7aS)-2-fluorohexahydro-1H-pyrrolizin-7a-yl)methoxy)pyrido[4,3-d]pyrimidin-4-yl)-2-thia-1,7-diazaspiro[4.5]decane 2,2-dioxide]",< 2 nM,,425 nM,,< 2 nM,94%,,,81 nM,2 nM,71 nM,< 2 nM,,,,27%,64%,69%,"IC50 ([2]; TR-FRET tracer displacement, KRas G13D): < 2 nM; IC50 ([4]; TR-FRET tracer displacement, KRas G12S): < 2 nM; IC50 ([7]; TR-FRET tracer displacement, KRas Q61H): < 2 nM; IC50 ([8]; TR-FRET tracer displacement, KRas G12A): 2 nM; inhibition at 0.1 µM ([9]; ASPC1, 3 h, single point, 100 nM compound, 3 hrs, AsPC-1 cells): 53%; inhibition at 0.1 µM ([11]; NCI-H727, 3 h, single point, 100 nM compound, 3 hrs, H727 cells): 47%; IC50 ([13]; TR-FRET tracer displacement, KRas WT): < 2 nM; IC50 ([14]; TR-FRET tracer displacement, KRas G12C): < 2 nM"
"CCc1c(F)ccc2cc(O)cc(-c3ncc4c(N5CCC[C@@]6(CCO6)C5)nc(OCC5(CN(C)C)CC5)nc4c3F)c12 [Example 700, (R)-4-(2-((1-((dimethylamino)methyl)cyclopropyl)methoxy)-8-fluoro-4-(1-oxa-6-azaspiro[3.5]nonan-6-yl)pyrido[4,3-d]pyrimidin-7-yl)-5-ethyl-6-fluoronaphthalen-2-ol]",,96%,1320 nM,93%,,103%,96%,83%,412 nM,4 nM,948 nM,,91%,97%,348 nM,83%,86%,96%,"IC50 ([6]; NCI-H358, HTRF pERK): 209 nM; IC50 ([17]; HCT-116, HTRF pERK): 784 nM; IC50 ([16]; HTRF pERK): 468 nM"
"CCc1c(F)ccc2cc(O)cc(-c3ncc4c(N5CCC[C@]6(C5)C[C@H](O)C6)nc(OC[C@@]56CCCN5[C@H](COC(=O)N(C)C)CC6)nc4c3F)c12 [Example 712, ((3S,7aS)-7a-(((7-(8-ethyl-7-fluoro-3-hydroxynaphthalen-1-yl)-8-fluoro-4-((2R,4r)-2-hydroxy-6-azaspiro[3.5]nonan-6-yl)pyrido[4,3-d]pyrimidin-2-yl)oxy)methyl)hexahydro-1H-pyrrolizin-3-yl)methyl dimethylcarbamate]",< 2 nM,90%,2710 nM,90%,2 nM,95%,90%,88%,15 nM,12 nM,30 nM,< 2 nM,86%,94%,22 nM,52%,,,
"CCc1c(F)ccc2cc(O)cc(-c3ncc4c(N5CCC[C@]6(C5)C[C@@H](O)C6)nc(OC[C@@]56CCCN5[C@H](COC(=O)N(C)C)CC6)nc4c3F)c12 [Example 713, ((3S,7aS)-7a-(((7-(8-ethyl-7-fluoro-3-hydroxynaphthalen-1-yl)-8-fluoro-4-((2S,4s)-2-hydroxy-6-azaspiro[3.5]nonan-6-yl)pyrido[4,3-d]pyrimidin-2-yl)oxy)methyl)hexahydro-1H-pyrrolizin-3-yl)methyl dimethylcarbamate]",4 nM,67%,3580 nM,76%,3 nM,60%,69%,74%,73 nM,22 nM,59 nM,2 nM,66%,81%,102 nM,25%,,,
